Assays:
[1] = biological target: T1, ATP-dependent translocase ABCB1 (Homo sapiens, UniProt P08183); assay: TP_TRANSPORTER: increase in Vinblastine transepithelial transpot (apical to basal)(Vinblastine: 0.01 uM, Naringenin: 855 uM) in Caco-2 cells; assay type: functional, cell-based; conditions: caco-2, 855 µM
[2] = biological target: T1, ATP-dependent translocase ABCB1; assay: TP_TRANSPORTER: increase in Vinblastine transepithelial transpot (apical to basal) (Vinblastine: 0.01 uM, GFJ: 50 %) in Caco-2 cells; assay type: functional, cell-based

T1 sequence (P08183 whole entry): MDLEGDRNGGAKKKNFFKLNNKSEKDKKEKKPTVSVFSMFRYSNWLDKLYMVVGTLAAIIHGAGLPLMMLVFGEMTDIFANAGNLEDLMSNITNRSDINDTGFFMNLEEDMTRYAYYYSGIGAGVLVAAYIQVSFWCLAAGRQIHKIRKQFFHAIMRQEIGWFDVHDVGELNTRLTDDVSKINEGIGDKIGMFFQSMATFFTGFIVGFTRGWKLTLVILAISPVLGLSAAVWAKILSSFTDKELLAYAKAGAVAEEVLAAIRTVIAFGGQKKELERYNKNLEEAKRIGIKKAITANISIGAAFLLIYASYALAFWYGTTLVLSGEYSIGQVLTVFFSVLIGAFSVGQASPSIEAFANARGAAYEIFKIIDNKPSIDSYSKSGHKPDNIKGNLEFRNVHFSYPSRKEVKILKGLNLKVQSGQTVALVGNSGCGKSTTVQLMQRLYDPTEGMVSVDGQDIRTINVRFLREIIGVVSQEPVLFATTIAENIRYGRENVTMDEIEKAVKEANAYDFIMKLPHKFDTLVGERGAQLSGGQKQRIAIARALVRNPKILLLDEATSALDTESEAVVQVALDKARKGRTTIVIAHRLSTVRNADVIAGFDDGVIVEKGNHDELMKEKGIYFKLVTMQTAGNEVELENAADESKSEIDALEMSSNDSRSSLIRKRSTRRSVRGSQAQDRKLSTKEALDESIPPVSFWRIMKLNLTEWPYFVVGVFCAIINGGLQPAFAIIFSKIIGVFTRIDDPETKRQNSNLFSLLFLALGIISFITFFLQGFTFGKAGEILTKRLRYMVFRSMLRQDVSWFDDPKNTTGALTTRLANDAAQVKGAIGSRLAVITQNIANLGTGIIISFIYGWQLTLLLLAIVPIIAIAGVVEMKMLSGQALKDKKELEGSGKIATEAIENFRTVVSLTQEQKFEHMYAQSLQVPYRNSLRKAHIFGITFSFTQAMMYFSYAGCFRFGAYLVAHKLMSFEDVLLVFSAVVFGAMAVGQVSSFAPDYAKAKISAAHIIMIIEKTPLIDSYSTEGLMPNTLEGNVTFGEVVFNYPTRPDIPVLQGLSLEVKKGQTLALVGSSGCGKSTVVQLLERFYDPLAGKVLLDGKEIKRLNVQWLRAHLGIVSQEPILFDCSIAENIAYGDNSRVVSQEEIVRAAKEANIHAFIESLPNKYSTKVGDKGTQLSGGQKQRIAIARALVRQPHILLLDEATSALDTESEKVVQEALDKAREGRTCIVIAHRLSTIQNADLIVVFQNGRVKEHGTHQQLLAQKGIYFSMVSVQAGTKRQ

Row | Activity [2] | Compound | Activity [1]
1 |  | O=C1C[C@@H](c2ccc(O)cc2)Oc2cc(O)cc(O)c21 [NARINGENIN] | 240%
2 | 240% | GRAPEFRUIT JUICE | 

— ChEMBL document CHEMBL2074298, “Inhibition of vinblastine efflux mediated by P-glycoprotein by grapefruit juice components in caco-2 cells” (Biol Pharm Bull, 1998)
